Measurements published in US20150150935A1, “[…] RECEPTOR AGONISTS FOR REDUCING PAIN AND INFLAMMATION” (CARA THERAPEUTICS, INC., priority 2012, published 2015).

Assays:
[1] = system: patients undergoing a laparoscopic hysterectomy; assay: Phase 2 double-randomized placebo-controlled trial, CR845 dosed preoperatively and postoperatively, analgesic efficacy; format: in vivo, human
Protocol: This trial was a phase 2 multi-center, double-randomized, double-blind, placebo-controlled study was conducted to evaluate the analgesic efficacy and safety of intravenous CR845 dosed preoperatively and postoperatively in patients undergoing a laparoscopic hysterectomy. The trial was conducted under an investigational new drug application (IND) filed with the US Food and Drug Administration (FDA).
This phase 2 trial multi-center, double-randomized, double-blind, placebo-controlled study was conducted in 22 sites in the United States. All clinical procedures were approved by the relevant Institutional Review Board (IRB) in compliance with the applicable laws and regulations of the US. The study was initiated up to fourteen (14) days preoperatively and the in-hospital period was approximately twenty-four (24) hours for each patient and follow up was conducted within seven (7) days of discharge from the hospital.
The aim of this clinical trial was to evaluate the analgesic efficacy and safety of intravenous (IV) CR845 dosed preoperatively and postoperatively in female patients undergoing an elective laparoscopic hysterectomy. Secondary objectives were: 1. […] To evaluate the safety and tolerability of CR845.
This Phase 2, double-randomized, double-blind, placebo-controlled, parallel group study was conducted in approximately 200 female subjects, aged 18 to 65, across 22 US clinical sites. All subjects were administered a 15-minute IV infusion of 0.04 mg/kg CR845 or matching placebo before surgery in a 1:1 ratio. After surgery and upon reaching a pain intensity baseline level of at least 4 on a 10 cm visual analog scale (VAS), subjects were also re-randomized in a 1:1 ratio to receive a second IV infusion of either 0.04 mg/kg of CR845 or placebo. All doubly-randomized patients were thereby randomized to receive one of four possible treatment regimens: placebo-placebo, placebo-CR845, CR845-placebo, or CR845-CR845 (See FIG. 1). Pain intensity and pain relief scores were assessed up to 24 hours following the post-surgery infusion. Patients were allowed IV morphine for rescue at any point during the post-operative period, if requested.
The main efficacy endpoints were the total morphine consumption in the first 24 hours in patients who were re-randomized in the postoperative period and the efficacy of CR845 in reducing pain intensity including time specific VAS difference; summed pain intensity differences (SPIDs); area under the curve (AUC); pain relief; and the proportion of patients that were randomized to receive preoperative CR845 with no rescue medication postoperatively. The safety endpoints included the incidence of adverse events, physical examination, vital signs, 12-lead ECG, clinical laboratory evaluations, and cumulative fluid balance.

[2] = system: patients post laparoscopic surgery; assay: Adverse events in subjects treated with CR845 or placebo, Phase IIb trial; format: in vivo, human; details: first 24 hours post laparoscopic surgery; all CR845 treated groups; FIG. 15
Protocol: Data are from a Phase IIb clinical trial in which subjects were administered CR845 or placebo. Generalized pruritus was distinguished from local pruritus events and shown separately in FIG. 15. Adverse events were lower in all CR845 treated patient groups as compared with placebo treated patients.

[3] = system: women after laparoscopic-assisted hysterectomy; details: cited from earlier work

In the case of `CC(C)C[C@@H](NC(=O)[C@@H](Cc1ccccc1)NC(=O)[C@H](N)Cc1ccccc1)C(=O)N[C@H](CCCCN)C(=O)N1CCC(N)(C(=O)O)CC1` [CR845, D-Phe-D-Phe-D-Leu-D-Lys-[ω(4-aminopiperidine-4-carboxylic acid)]-OH], the “Reduction in summed pain intensity difference (SPID) pain score versus placebo only” value ([1]; CR845-CR845 (0.04 mg/kg IV before and after surgery), first 24 hours, FIG. 2) was “more than twice the reduction”, the “Reduction in pain intensity difference (PID) pain score versus placebo only” value ([1]; CR845-CR845 (before and after surgery), over 24 hours, FIG. 3) was “twice the reduction” and the “Pain relief as judged by PID score” value ([1]; CR845 before and after surgery, among four groups) was “highest pain intensity difference”. For the same compound, the “Patients' overall evaluation of pain relief as excellent” value ([1]; CR845 pretreatment groups (CR845-CR845, CR845-Placebo, CR845-None)) was “highest percentage of patients”, the “Reduction in pain SPID scores” value ([1]; one dose of CR845, before or after surgery, first 24 hours, FIG. 2) was “intermediate level of reduction” and the “Reduction in pain PID scores” value ([1]; one dose of CR845, before or after surgery, first 24 hours, FIG. 3) was “intermediate level of reduction”. The “Morphine self-administered by the patients” value ([1]; two doses of CR845, intervals 2-4, 4-12 and 12-24 hours post surgery, FIG. 4) was “least morphine”, the “Adverse events (nausea, vomiting and pruritus) compared with placebo” value [2] was “lower” and the “Reduction of morphine use versus placebo” value ([3]; 0.04 mg/kg 15-minute IV infusion after surgery, first 16 hours post-infusion) was 32%. For the same compound, the “Opioid side effects (vomiting, nausea and pruritis)” value ([3]; 0.04 mg/kg IV after surgery, versus placebo) was “significant reduction”, the “Changes in clinical lab test results, vital signs, electrocardiograms, Ramsey sedation scale” value ([3]; 0.04 mg/kg IV after surgery) was “no significant changes” and the “Reduction of pain intensity” value ([3]; administered after surgery) was “effective”. For the same compound, the Safety and tolerability ([3]; administered after surgery) was “safe and well tolerated” and the “Tolerability in comparison to other known kappa agonists” value ([3]; single intravenous dose after surgery) was “better tolerated”.
